Earlier results as cited in PMC10323144, “Garbage in, garbage out: how reliable training data improved a virtual screening approach against SARS-CoV-2 MPro” (Frontiers in Pharmacology, 2023).
Square brackets hold non-standard residues; d marks the D form. Peptide text beside a SMILES is read from it. * marks the point of attachment. Nle = CCCC[CH](N)C(=O)O; Cbz = O=C(OCc1ccccc1)*

tested on: MPro; details: compiled from peer-reviewed sources (287 compounds) ref the 18 original articles; cited from earlier work

Compound | Class (MPro activity class)
CC(O)(CS(=O)(=O)c1ccc(F)cc1)C(=O)Nc1ccc(C#N)c(C(F)(F)F)c1 (stereo not drawn) [Bicalutamide] | 0 (compounds with IC50 > 20 μM, percentage inhibition <80% at 20 µM or 50 μM, or percentage enzyme inhibition <50% at 10 µM were labelled as INACTIVE)
CC1=C(C(=O)O)N2C(=O)[C@@H](NC(=O)[C@H](N)c3ccccc3)[C@H]2SC1 [CEPHALEXIN] | 0 (compounds with IC50 > 20 μM, percentage inhibition <80% at 20 µM or 50 μM, or percentage enzyme inhibition <50% at 10 µM were labelled as INACTIVE)
CC(C)C(NC(=O)OCc1ccccc1)C(=O)NC(C=O)Cc1ccccc1 (stereo not drawn) [Calpain inhibitor III] (Cbz-Val-Phe-aldehyde; configuration not given here) | 0 (compounds with IC50 > 20 μM, percentage inhibition <80% at 20 µM or 50 μM, or percentage enzyme inhibition <50% at 10 µM were labelled as INACTIVE)
CSCCC(C=O)NC(=O)C(CC(C)C)NC(=O)C(CC(C)C)NC(C)=O (stereo not drawn) [Calpain inhibitor II] (Ac-Leu-Leu-Met-aldehyde; configuration not given here) | 1 (Compounds with IC50 < 10 µM or with a percentage of enzyme inhibition >50% at 10 µM were labelled as ACTIVE)
CCCCC(C=O)NC(=O)C(CC(C)C)NC(=O)C(CC(C)C)NC(C)=O (stereo not drawn) [Calpain inhibitor I] (Ac-Leu-Leu-[Nle]-aldehyde; configuration not given here) | 1 (Compounds with IC50 < 10 µM or with a percentage of enzyme inhibition >50% at 10 µM were labelled as ACTIVE)
CC(C)CC(C=O)NC(=O)C(NS(=O)(=O)c1ccc(F)cc1)C(C)C (stereo not drawn) [Calpain inhibitor VI] | 0 (compounds with IC50 > 20 μM, percentage inhibition <80% at 20 µM or 50 μM, or percentage enzyme inhibition <50% at 10 µM were labelled as INACTIVE)
CCCC(NC(=O)C(CC(C)C)NC(=O)OCc1ccccc1)C(=O)C(=O)NCc1ccccn1 (stereo not drawn) [Calpain inhibitor XII] | 1 (Compounds with IC50 < 10 µM or with a percentage of enzyme inhibition >50% at 10 µM were labelled as ACTIVE)
CN(C)C(=O)COC(=O)Cc1ccc(OC(=O)c2ccc(NC(=N)N)cc2)cc1 [Camostat] | 0 (compounds with IC50 > 20 μM, percentage inhibition <80% at 20 µM or 50 μM, or percentage enzyme inhibition <50% at 10 µM were labelled as INACTIVE)
CC1C=CC=CC=CC=CC=CC=CC=CC(OC2OC(C)C(O)C(N)C2O)CC(O)C(C(=O)O)C(O)CC(=O)CC(O)CC(O)CC(O)CC(=O)CCCC(=O)CC(=O)OC1C(C)CC(C)C(O)CC(=O)c1ccc(N)cc1 (stereo not drawn) [Candicidin] | 0 (compounds with IC50 > 20 μM, percentage inhibition <80% at 20 µM or 50 μM, or percentage enzyme inhibition <50% at 10 µM were labelled as INACTIVE)
Cn1nc(C(C)(C)C)cc1C(=O)NC(Cc1cccc(Cl)c1)C(=O)NCC#N (stereo not drawn) [Cathepsin inhibitor 1] | 0 (compounds with IC50 > 20 μM, percentage inhibition <80% at 20 µM or 50 μM, or percentage enzyme inhibition <50% at 10 µM were labelled as INACTIVE)
O=C(/C=C/c1ccc(O)c(O)c1)O[C@@H]1C[C@](O)(C(=O)O)C[C@@H](O)[C@H]1O [Chlorogenic acid] | 0 (compounds with IC50 > 20 μM, percentage inhibition <80% at 20 µM or 50 μM, or percentage enzyme inhibition <50% at 10 µM were labelled as INACTIVE)
O=C(O)C1OC(Oc2cc(O)c3c(=O)cc(-c4ccccc4)oc3c2)C(O)C(O)C1O [Chrysin-7-O-β-D-glucoronide] | 0 (compounds with IC50 > 20 μM, percentage inhibition <80% at 20 µM or 50 μM, or percentage enzyme inhibition <50% at 10 µM were labelled as INACTIVE)
O=c1cc(-c2ccccc2)oc2cc(O)cc(O)c12 [Chrysin] | 0 (compounds with IC50 > 20 μM, percentage inhibition <80% at 20 µM or 50 μM, or percentage enzyme inhibition <50% at 10 µM were labelled as INACTIVE)
O=C(C=Cc1ccc(O)c(O)c1)OC1C(O)CC(O)(C(=O)O)CC1O (stereo not drawn) [Cryptochlorogenic acid] | 0 (compounds with IC50 > 20 μM, percentage inhibition <80% at 20 µM or 50 μM, or percentage enzyme inhibition <50% at 10 µM were labelled as INACTIVE)
CC(C)CC1CN(C(=O)CCl)CCN1Cc1cccc(Cl)c1 (stereo not drawn) [DAN-LON-a5fc619e-3] | 1 (Compounds with IC50 < 10 µM or with a percentage of enzyme inhibition >50% at 10 µM were labelled as ACTIVE)
O=C(CCl)N1CC2CC1CN2Cc1cccc(Cl)c1 (stereo not drawn) [DAN-LON-a5fc619e-8] | 1 (Compounds with IC50 < 10 µM or with a percentage of enzyme inhibition >50% at 10 µM were labelled as ACTIVE)
CC(NC(=O)Cc1cc(F)cc(F)c1)C(=O)NC(C(=O)OC(C)(C)C)c1ccccc1 (stereo not drawn) [DAPT (GSI-IX)] | 0 (compounds with IC50 > 20 μM, percentage inhibition <80% at 20 µM or 50 μM, or percentage enzyme inhibition <50% at 10 µM were labelled as INACTIVE)
CCNc1ncc(C#N)cc1CN1CCN(C(=O)CCl)CC1 [DAR-DIA-fb20be43-4] | 1 (Compounds with IC50 < 10 µM or with a percentage of enzyme inhibition >50% at 10 µM were labelled as ACTIVE)

Compound | Class (MPro activity class)
N#Cc1cc(CN2CCN(C(=O)CCl)CC2)c2ccccc2c1 [DAR-DIA-fb20be43-6] | 1 (Compounds with IC50 < 10 µM or with a percentage of enzyme inhibition >50% at 10 µM were labelled as ACTIVE)
COc1cc(CN2CCN(C(=O)CCl)CC2)c2ccccc2c1 [DAR-DIA-fb20be43-7] | 1 (Compounds with IC50 < 10 µM or with a percentage of enzyme inhibition >50% at 10 µM were labelled as ACTIVE)
CC(O)c1cc(C(=O)N[C@@H](C)Cn2ccc(-c3ccc(C#N)c(Cl)c3)n2)[nH]n1 (stereo partly drawn) [DAROLUTAMIDE] | 0 (compounds with IC50 > 20 μM, percentage inhibition <80% at 20 µM or 50 μM, or percentage enzyme inhibition <50% at 10 µM were labelled as INACTIVE)
CC(NC(=O)CCl)c1cc(Cl)cc(-c2ccc(S(N)(=O)=O)cc2)c1 (stereo not drawn) [DAV-CRI-14a23e73-1] | 1 (Compounds with IC50 < 10 µM or with a percentage of enzyme inhibition >50% at 10 µM were labelled as ACTIVE)
O=C(CCl)Nc1nc2c(S(=O)(=O)NCCc3ccccc3)cccc2s1 [DUN-NEW-f8ce3686-23] | 1 (Compounds with IC50 < 10 µM or with a percentage of enzyme inhibition >50% at 10 µM were labelled as ACTIVE)
COC(=O)N[C@H](C(=O)N1CCC[C@H]1c1nc(-c2ccc(-c3ccc(-c4c[nH]c([C@@H]5CCCN5C(=O)[C@@H](NC(=O)OC)C(C)C)n4)cc3)cc2)c[nH]1)C(C)C [Daclatasvir] | 0 (compounds with IC50 > 20 μM, percentage inhibition <80% at 20 µM or 50 μM, or percentage enzyme inhibition <50% at 10 µM were labelled as INACTIVE)
CC(C)(C)OC(=O)N[C@H]1CCCCC/C=C\[C@@H]2C[C@@]2(C(=O)NS(=O)(=O)C2CC2)NC(=O)[C@@H]2C[C@@H](OC(=O)N3Cc4cccc(F)c4C3)CN2C1=O [Danoprevir] | 0 (compounds with IC50 > 20 μM, percentage inhibition <80% at 20 µM or 50 μM, or percentage enzyme inhibition <50% at 10 µM were labelled as INACTIVE)
CC(C)CN(C[C@@H](O)[C@H](Cc1ccccc1)NC(=O)O[C@H]1CO[C@H]2OCC[C@H]21)S(=O)(=O)c1ccc(N)cc1 [Darunavir] | 0 (compounds with IC50 > 20 μM, percentage inhibition <80% at 20 µM or 50 μM, or percentage enzyme inhibition <50% at 10 µM were labelled as INACTIVE)
CC(C)Nc1cccnc1N1CCN(C(=O)c2cc3cc(NS(C)(=O)=O)ccc3[nH]2)CC1 [Delavirdine] | 0 (compounds with IC50 > 20 μM, percentage inhibition <80% at 20 µM or 50 μM, or percentage enzyme inhibition <50% at 10 µM were labelled as INACTIVE)
O=C1c2c(O)cc(O)cc2O[C@H](c2cc(O)c(O)c(O)c2)[C@H]1O [Dihydromyricetin] | 1 (Compounds with IC50 < 10 µM or with a percentage of enzyme inhibition >50% at 10 µM were labelled as ACTIVE)
CC(C)CC(NC(=O)C1OC1C(=O)O)C(=O)NCCCCN=C(N)N (stereo not drawn) [E-64] | 0 (compounds with IC50 > 20 μM, percentage inhibition <80% at 20 µM or 50 μM, or percentage enzyme inhibition <50% at 10 µM were labelled as INACTIVE)
O=C(Cc1cccc(Cl)c1)Nc1cccnc1 [EDG-MED0da5ad92-2] | 0 (compounds with IC50 > 20 μM, percentage inhibition <80% at 20 µM or 50 μM, or percentage enzyme inhibition <50% at 10 µM were labelled as INACTIVE)
Cc1ccc(NC(=O)Cc2cccc(Cl)c2)cn1 [EDG-MED0da5ad92-13] | 0 (compounds with IC50 > 20 μM, percentage inhibition <80% at 20 µM or 50 μM, or percentage enzyme inhibition <50% at 10 µM were labelled as INACTIVE)
Cc1ncccc1NC(=O)Cc1cccc(Cl)c1 [EDG-MED0da5ad92-14] | 0 (compounds with IC50 > 20 μM, percentage inhibition <80% at 20 µM or 50 μM, or percentage enzyme inhibition <50% at 10 µM were labelled as INACTIVE)
C#Cc1cccc(Nc2ncnc3cc(OCCOC)c(OCCOC)cc23)c1 [ERLOTINIB] | 0 (compounds with IC50 > 20 μM, percentage inhibition <80% at 20 µM or 50 μM, or percentage enzyme inhibition <50% at 10 µM were labelled as INACTIVE)
COc1cc2c(cc1Cc1cccc(Cl)c1F)c(=O)c(C(=O)O)cn2[C@H](CO)C(C)C [Elvitegravir] | 0 (compounds with IC50 > 20 μM, percentage inhibition <80% at 20 µM or 50 μM, or percentage enzyme inhibition <50% at 10 µM were labelled as INACTIVE)
Cc1cc(C#N)cc(C)c1Oc1nc(Nc2ccc(C#N)cc2)nc(N)c1Br [Etravirine] | 0 (compounds with IC50 > 20 μM, percentage inhibition <80% at 20 µM or 50 μM, or percentage enzyme inhibition <50% at 10 µM were labelled as INACTIVE)
C[C@@H]1O[C@@H](OC[C@H]2O[C@@H](OCCc3ccc(O)c(O)c3)[C@H](O)[C@@H](O)[C@@H]2OC(=O)/C=C/c2ccc(O)c(O)c2)[C@H](O)[C@H](O)[C@H]1O [Forsythoside A] | 1 (Compounds with IC50 < 10 µM or with a percentage of enzyme inhibition >50% at 10 µM were labelled as ACTIVE)
